Tests used:
[1] = tested on: large IMCLs; test: Large IMCLs treated with secretin with/without LY2109761, or with TGF-β1 (Example 2); assay type: cell-based, mouse
Source text: Cholangiocytes were obtained by immunoaffinity separation as described herein above, using a monoclonal antibody (a gift from Dr. R. Faris, Brown University, Providence, R.I.) that is expressed by all intrahepatic cholangiocytes. HSCs from the selected groups of mice were isolated by LCM as described previously in Wu, N et al., The secretin/secretin receptor axis modulates liver fibrosis through changes in transforming growth factor-beta1 biliary secretion in mice, Hepatology (Baltimore, Md.) 64(3):865-879 (2016). Briefly, frozen liver sections (n=3, 10 μm thick) were incubated overnight with an anti-desmin (a marker of stellate cells) antibody. Then, desmin-positive cells were dissected from the slides using a LCM system Leica LMD7000 (Buffalo Grove, Ill.) and were collected before RNA extraction with the Arcturus PicoPure RNA isolation kit (Thermo Fisher Scientific CO, Mountain View, Calif.). The in vitro studies were performed in: (I) immortalized murine cholangiocyte lines derived from large cholangiocytes lining large ducts (IMCLs); and (ii) human hepatic stellate cell lines (HHSteCs; ScienCell Research Laboratories, Carlsbad, Calif.).
WT mice were treated for 1 wk with saline or secretin (Sct; 2.5 nmoles/kg body weight per day) before collecting cholangiocytes, HSCs and cholangiocyte supernatants. The levels of TGF-β1 were measured in short-term (6-hour) cultures of cholangiocytes by ELISA kits. Subsequently, we measured: (i) liver fibrosis by immunofluorescence for Col1a1 in liver sections and real-time PCR for TGF-β1, TFG-β1R, Col1a1, α-SMA and Fn1 in cholangiocytes and HSCs; and (ii) cellular senescence by immunofluorescence in liver sections for p16 and real-time PCR for p16 and p21 in cholangiocytes and HSC.
(§1) Biliary supernatants were obtained from normal and BDL WT mice and Sct^−/−, SR^−/− and Sct^−/−/SR^−/− BDL mice as well as normal WT mice treated with saline or secretin. HHSteCs were incubated with the aforementioned biliary supernatants (containing different levels of TGF-β1) for 24 hr (in the absence or presence of LY2109761) before measuring the expression of senescence and fibrosis genes by real-time PCR. Furthermore, HHSteCs were incubated with the supernatant of large IMCLs treated for 0.2% bovine serum albumin (basal) or secretin (10 nM) with/without LY2109761 for 6 hr before measuring the mRNA expression of fibrosis and senescence genes. To provide direct evidence that TGF-β1 directly modulates fibrosis and senescence of IMCLs and HHSteCs, these cells were stimulated with TGF-β1 (10 nM) for 24 hr before measuring the expression of PCNA as well as fibrosis and senescence genes by real-time PCR.

[2] = tested on: HHSteCs; test: HHSteCs incubated with biliary/IMCL supernatants with/without LY2109761, or with TGF-β1 (Example 2); assay type: cell-based, human
Method: as §1

[3] = tested on: IMCLs; test: IMCLs treated with Sct with/without microRNA 125b mimic precursor, TGF-β1 or r-VEGFA (Example 4); assay type: cell-based, mouse; settings: TGF-β1 10 nM or r-VEGFA 100 nM, 12 hr
Method: (§2) Cholangiocytes were obtained by immunoaffinity separation, Cholangiocytes were obtained by immunoaffinity separation as described herein above, using a monoclonal antibody (a gift from Dr. R. Faris, Brown University, Providence, R.I.) that is expressed by all intrahepatic cholangiocytes. Cell viability (greater than 97%) was assessed by trypan blue exclusion. HSCs were isolated by LCM as described herein above. Frozen liver sections (n=3, 10 μm thick) were incubated overnight with an antibody against desmin (marker of stellate cells). Following staining, desmin-positive HSCs were dissected from the slides by a LCM system Leica LMD7000 (Buffalo Grove, Ill.) and collected into a PCR tube before being analyzed. The RNA from HSCs was extracted with the Arcturus PicoPure RNA isolation kit (Thermo Fisher Scientific CO, Mountain View, Calif.). The in vitro studies were performed in our immortalized murine biliary cell lines (IMCLs) and human hepatic stellate cell lines (HHSteCs, Sciencell, Carlsbad, USA).
In biliary supernatants, the levels of TGF-β1 were measured by ELISA kits. […] We also evaluated by immunofluorescence the expression of VEGFR-2 in cell smears of IMCLs and HHSteCs. […]

[4] = tested on: HHSteCs; test: HHSteCs treated with cholangiocyte supernatants with/without LY2109761, TGF-β1 or r-VEGFA (Example 4); assay type: cell-based, human; settings: 12 hr
Method: as §2
In biliary supernatants, the levels of TGF-β1 were measured by ELISA kits. HHSteCs were incubated with cholangiocyte supernatants from the selected groups of animals for 12 hr (in the absence or presence of LY2109761, 10 μM, a TGF-β1 receptor antagonist, Cayman Chemical, Ann Arbor, Mich.) before measuring the expression of VEGF-A and senescent and fibrosis genes by qPCR. To determine that Sct increases TGF-β1 levels by a microRNA 125b-dependent mechanism, IMCLs were treated with Sct (10 nM in the absence/presence of a microRNA 125b mimic precursor, 5 μM) for 12 hr before measuring TGF-β1 mRNA expression (by qPCR) and secretion by ELISA kits. To provide conclusive evidence that TGF-β1 directly modulates the function IMCLs and HHSteCs, these cells were stimulated with TGF-β1 (10 nM) for 12 hr before measuring the expression of VEGF-A and senescent and fibrosis genes by qPCR. […] We also evaluated by immunofluorescence the expression of VEGFR-2 in cell smears of IMCLs and HHSteCs. […]

[5] = tested on: dnTGF-βRII mice; test: dnTGF-βRII mice 12 wk (early stage PBC model) treated 1 wk by osmotic minipump; assay type: in vivo, mouse; settings: dnTGF-βRII 12 wk; for intrahepatic bile duct mass (IBDM, CK-19): 1 wk minipump
Method: (§3) Briefly, we used wild-type (WT), dnTGFβRII 12 wk and dnTGFβRII 34 wk mice treated with control or SR antagonist (SCT 5-27) minipump (10 μg/kg/day) for 1 wk. Hepatic damage was shown by H&E. IBDM and cholangiocyte proliferation were measured by immunohistochemistry for CK-19 and Ki67, respectively. Biliary apoptosis was evaluated by TUNEL staining. Senescence was measured in cholangiocytes by immunofluorescence for CCL2 or p16 co-stained with CK-19 (to image bile ducts) and SA-β-Galactosidase activity. Hepatic fibrosis was assessed by qPCR for collagen-1a and α-SMA in total liver, and quantification of Sirius Red staining. Hepatic stellate cell (HSC) activation was evaluated by immunofluorescence (IF) for Syp-9. HSC senescence was evaluated by IF for CCL2 or p16 co-stained with desmin (to visualize HSCs). Secretin levels in serum and bile were measured by EIA. Bile and serum were obtained from human control, early PBC and advanced PBC patients, and secretin was evaluated by EIA.
(§4) All animal procedures were performed according to protocols approved by the Baylor Scott & White Health IACUC Committee. Transgenic mice expressing a dominant-negative form of the human transforming growth factor-beta receptor II (dnTGF-βRII) were obtained from Dr. M. Eric Gershwin at UC Davis Health (Sacramento, Calif.), and background-matched wild-type (WT, strain C57BL/6) mice were purchased from Charles River Laboratories (Wilmington, Mass.); the breeding colony is established in our animal facility. Animals were maintained in micro-isolator cages in a temperature-controlled environment with 12/12-hr light/dark cycles and fed ad libitum standard chow with free access to drinking water. Studies were performed in 12 wk-old WT mice, and 12 wk-old (mimic early stage PBC) and 32 wk-old (mimic late stage PBC) female and male dnTGF-βRII mice (25-30 gm) that were treated with either saline, secretin (Sct; 2.5 nmoles/kg body weight per day; Bachem, Torrance, Calif.) or the secretin receptor (SR) antagonist, Sec 5-27 (10 μg/kg body weight per day; Thermo Fisher Scientific, Waltham, Mass.) for 1 wk by intraperitoneally implanted osmotic minipump. Liver tissue samples and blocks (formalin-fixed, paraffin-embedded and OCT-embedded), serum, bile, cholangiocytes, and cholangiocyte supernatants (after incubation at 37° C. for 4 hr) were collected as described.
(§5) Hematoxylin and eosin (H&E) staining was performed in formalin-fixed, paraffin-embedded liver sections (4-5 μm, 3 samples from 3 different animals) to determine liver morphology. H&E stained liver sections were evaluated by a board-certified pathologist to assess the degree of lobular damage, hepatic necrosis and portal inflammation. At least 10 different portal areas were evaluated for each parameter. Liver sections were examined in a coded fashion by BX-51 light microscopy (Olympus, Tokyo, Japan) equipped with a camera (See, Mancinelli, R et al., Ischemia reperfusion of the hepatic artery induces the functional damage of large bile ducts by changes in the expression of angiogenic factors. Am J Physiol Gastrointest Liver Physiol 2015; 309:G865-873 (2015); Taffetani S et al., Prolactin stimulates the proliferation of normal female cholangiocytes by differential regulation of Ca2+-dependent PKC isoforms, BMC Physiol 7:6 (2007)).
(§6) Serum levels of alkaline phosphatase (ALP) and γ-glutamyltransferase (γGT) are commonly used to diagnose PBC (Heathcote, E J, Management of primary biliary cirrhosis. The American Association for the Study of Liver Diseases practice guidelines, Hepatology 31:1005-1013 (2000)); therefore, were measured serum levels of ALP and γGT in mouse serum samples using the Alkaline Phosphatase Assay Kit and γ-Glutamyltransferase Activity Colorimetric Assay Kit, respectively (Abcam; Cambridge, Mass.).
(§7) Early stage PBC is identified by cholangiocyte proliferation, whereas late stage PBC is characterized by ductopenia. […]

[6] = tested on: dnTGF-βRII mice; test: dnTGF-βRII mice 32-34 wk (late stage PBC model) treated 1 wk by osmotic minipump; assay type: in vivo, mouse; settings: for intrahepatic bile duct mass (IBDM, CK-19): 1 wk minipump
Method: as §3, §4, §5, §6, §7

[7] = tested on: human hepatic stellate cells (hHSC); test: hHSC activation by cholangiocyte supernatants from treated mice (qPCR); assay type: cell-based
Method: In vitro experiments were performed in human hepatic stellate cells (hHSC) that were purchased from ScienCell Research Laboratories (Carlsbad, Calif.) that were maintained in standard conditions.
[…] Activation of hHSCs was determined by qPCR for FN-1, TGF-β1, α-SMA, and collagen type-1a (Kennedy, L L et al., Knockout of microRNA-21 reduces biliary hyperplasia and liver fibrosis in cholestatic bile duct ligated mice, Lab Invest 96:1256-1267 (2016)).

[8] = tested on: Mdr2−/− mice; settings: cited from earlier work
[9] = molecular target: TGF-β receptor type II (Homo sapiens, UniProt P37173); settings: cited from earlier work
[10] = vs saline treated, listed as SR antagonist
[11] = dnTGF-βRII 32/34 wk, vs saline treated
[12] = dnTGF-βRII 32/34 wk, listed as SR antagonist

Sequence of TGF-β receptor type II (P37173 23-567): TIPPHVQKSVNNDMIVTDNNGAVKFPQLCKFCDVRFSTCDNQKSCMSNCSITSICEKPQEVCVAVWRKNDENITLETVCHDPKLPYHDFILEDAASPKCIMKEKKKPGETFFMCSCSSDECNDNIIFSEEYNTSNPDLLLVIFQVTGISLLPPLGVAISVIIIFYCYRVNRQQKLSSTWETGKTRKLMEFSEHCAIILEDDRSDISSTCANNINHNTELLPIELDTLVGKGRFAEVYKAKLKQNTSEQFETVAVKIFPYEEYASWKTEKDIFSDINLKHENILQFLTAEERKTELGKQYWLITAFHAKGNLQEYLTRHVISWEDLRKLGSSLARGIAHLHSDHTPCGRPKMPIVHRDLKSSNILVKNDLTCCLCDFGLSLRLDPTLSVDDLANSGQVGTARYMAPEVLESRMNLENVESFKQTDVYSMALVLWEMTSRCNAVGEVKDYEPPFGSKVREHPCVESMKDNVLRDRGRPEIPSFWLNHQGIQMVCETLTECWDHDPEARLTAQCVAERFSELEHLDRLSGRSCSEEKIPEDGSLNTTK

## TGF-β1: transforming growth factor-β1 used to stimulate IMCLs and HHSteCs (10 nM)
[1]; TGF-β1 10 nM, 24 hr
  PCNA mRNA expression of large IMCLs: decreased
  expression of fibrosis and senescence genes of large IMCLs: increased
[2]; direct TGF-β1 10 nM, 24 hr
  fibrosis gene expression in HHSteCs: stimulates
  senescence gene expression in HHSteCs: reduces
[3]
  expression of VEGF-A, fibrosis and senescence genes in IMCLs: increased
[4]; TGF-β1 10 nM or r-VEGFA 100 nM
  expression of VEGF-A, fibrosis genes in HHSteCs: increased
  senescence genes in HHSteCs: decreased

## 15-lysine-secretin-(5-27) [SCT 5-27]
[5]
  HSC activation (SYP-9 staining): reduced
  HSC senescence: increased
  biliary senescence (p16, p18, p21, CCL2): reduced
  cholangiocyte apoptosis (TUNEL-positive cholangiocytes): enhanced
  cholangiocyte proliferation (Ki67): reduced
  liver damage (H&E: portal inflammation, inflammatory infiltration, lobular necrosis): reduced
  secretin levels (serum and bile, EIA): reduced
[5]; vs saline treated
  Sct, SR, CFTR and AE2 expression: reduced
  collagen content / deposition (Sirius Red), hepatic fibrosis: significantly reduced
  serum levels of ALP and γGT: reduced
  intrahepatic bile duct mass (IBDM, CK-19): significantly reduced
[5]; [10]
  intrahepatic bile duct mass (IBDM, CK-19): reduced
  collagen content / deposition (Sirius Red), hepatic fibrosis: ameliorated
[5]; listed as SR antagonist
  biliary senescence (p16, p18, p21, CCL2): decreased
  cholangiocyte apoptosis (TUNEL-positive cholangiocytes): increased
  liver damage (H&E: portal inflammation, inflammatory infiltration, lobular necrosis): ameliorated
[6]; dnTGF-βRII 32/34 wk
  biliary senescence (p16, p18, p21, CCL2): further increased
  cholangiocyte apoptosis (TUNEL): further increased
  collagen content / deposition (Sirius Red), hepatic fibrosis: increased
[6]; [11]
  Sct, SR, CFTR and AE2 expression: further decrease
  intrahepatic bile duct mass (IBDM, CK-19): further reduced
[6]; dnTGF-βRII 32/34 wk, vs saline treated, listed as SR antagonist
  intrahepatic bile duct mass (IBDM, CK-19): decreased
[6]; [12]
  biliary senescence (p16, p18, p21, CCL2): increased
  cholangiocyte apoptosis (TUNEL): exacerbated
  collagen content / deposition (Sirius Red), hepatic fibrosis: further increased
[6]; dnTGF-βRII 34 wk
  HSC activation (SYP-9): increased
  biliary growth / cholangiocyte proliferation: further reduced
  liver damage (H&E): exacerbated
  secretin levels (serum; serum and bile): reduced
[6]; dnTGF-βRII 34 wk, listed as SR antagonist
  HSC activation (SYP-9): enhanced
[7]; cholangiocyte supernatants from treated dnTGF-βRII mice 12 wks
  expression of FN-1, TGF-β1, α-SMA and collagen type-1a in hHSCs: reduced
[7]; cholangiocyte supernatants from treated dnTGF-βRII mice 34 wks
  expression of FN-1, TGF-β1, α-SMA and collagen type-1a in hHSCs: enhanced
[8]; BDL and Mdr2−/− mouse model of PSC
  hepatic fibrosis and HSC activation: reduced
[8]; Mdr2−/− mice
  TGF-β1/TGF-β1 receptor axis expression: decreased
  biliary mass and HSCs activation: reduced

## c1ccc(-c2nn3c(c2-c2ccnc4cc(OCCN5CCOCC5)ccc24)CCC3)nc1 [LY2109761]
[1]; LY2109761 10 nM
  effect of preincubation on secretin-induced TGF-β1 secretion and fibrosis/senescence genes of large IMCLs: prevented
[2]; before supernatant from secretin-treated WT mice
  effect of preincubation on fibrosis/senescence gene changes in HHSteCs: reversed
[2]; supernatant of secretin-treated large IMCLs
  effect of preincubation on fibrosis/senescence gene changes of HHSteCs: reversed
[4]; LY2109761 10 μM, cholangiocyte supernatants from Mdr2−/− mice
  effect of preincubation on VEGF-A, fibrosis and senescence gene changes in HHSteCs: reversed
[9]
  Ki: 300 nM

— patent US11318190B2, “Methods and compositions for treating liver disease” (UNITED STATES GOVERNMENT AS REPRESENTED BY THE DEPARTMENT …, priority 2017, dated 2022)
